In PubChem BioAssay AID463206 (Broad Institute, 2010):
Activity calls are given as the source filed them.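 How the source made its calls: active means caspase luminescence falls with dose and the half-maximal concentration AC50 from the fitted curve is at or below a set limit; inconclusive means flat fit at 30 to 70% signal loss, or invalid fit; inactive means AC50 above the limit, or signal rises instead.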

system: INS-1E cytokine-induced caspase-3/7, Caspase-Glo luminescence, 48 h; assay: suppression of cytokine-driven beta-cell apoptosis – INS-1E rat cells, luminescence, orthogonal assay for beta-cell apoptosis protection project, dose response (AID 463206)

| Structure (SMILES) | AC50 |
| --- | --- |
| O=C(NCc1cccnc1)Nc1ccc([N+](=O)[O-])cc1 | > 26 µM (inactive) |
| O=C(N/N=C/c1ccc(O)cc1O)c1ccc(CN2C(=O)c3cccc4cccc2c34)cc1 | > 26 µM (inactive) |
| C#CCOCCOCCOCCNc1nc(N2CCN(C(=O)CCCCCCCCCCNC(=O)[C@H](CCCCN)n3cc(C[C@@H](C)CC)nn3)CC2)nc(N2CCN(C(=O)CCCCCCCCCCNC(=O)[C@@H]([C@H](C)O)n3cc(C)nn3)CC2)n1 | > 26 µM (inactive) |
| O=C(Nc1ccc(Cl)cc1)Nc1ccc(Cl)c(Cl)c1 | > 26 µM (inactive) |
| C1=C(CCNc2ncnc3c2[nH]c2ccccc23)CCCC1 | > 26 µM (inactive) |
| COc1ccc(CC(=O)Nc2cccc(S(=O)(=O)N3CCCCCC3)c2)cc1OC | > 26 µM (inactive) |
| O=C(CSc1nc2ccccc2c(=O)n1-c1ccccc1)N1CCc2ccccc2C1 | > 26 µM (inactive) |
| COc1cccc(/C=N/Nc2nc3ccccc3[nH]2)c1O | > 26 µM (inactive) |
| Cc1nc(N2CCN(C(=O)c3ccco3)CC2)c2c3c(sc2n1)CC(C)CC3 (stereo not drawn) | > 26 µM (inactive) |
| COc1ccccc1NC(=O)c1cc2cc(Br)ccc2cc1O | > 26 µM (inactive) |
| Cc1ccc(C2(c3ccc(C)cc3)CC2C(=O)Nc2ccc([N+](=O)[O-])cc2O)cc1 (stereo not drawn) | > 26 µM (inactive) |
| Cc1oc(/N=C/c2ccccc2)c(C#N)c1C | > 26 µM (inactive) |
| CCCC(=O)NC(c1ccccc1OC)c1ccc2cccnc2c1O (stereo not drawn) | > 26 µM (inactive) |
| COc1cc(OC)c2cc(C(=O)N/N=C/c3ccccc3O)[nH]c2c1 | > 26 µM (inactive) |
| Cc1ccc(S(=O)(=O)Nc2cc(Cl)c(O)c3ncccc23)cc1 | > 26 µM (inactive) |
| CSc1nc(N)nc2c1ncn2CC(=O)N1CCN(Cc2c(C)cc(C)cc2C)CC1 | > 26 µM (inactive) |
| COc1ccc(C(=O)/C(C#N)=N/Nc2ccc([N+](=O)[O-])cc2)cc1 | > 26 µM (inactive) |
| COc1cc(/C=C2\CC(C(C)(C)C)C/C(=C\c3cc(OC)c(OC)c(OC)c3)C2=O)cc(OC)c1OC (stereo not drawn) | > 26 µM (inactive) |
| CC(=O)c1c(C)oc2ccc(N(C(C)=O)S(=O)(=O)c3cccc4cccnc34)cc12 | > 26 µM (inactive) |
| C/C(=N\NC(N)=S)c1ccncc1 | > 26 µM (inactive) |
| CC1=NN(c2nc3ccccc3[nH]2)C(=O)C1Cc1ccccc1 (stereo not drawn) | > 26 µM (inactive) |
| CCc1ccc(C2=NNC(=Nc3cccc(S(=O)(=O)N(C)C)c3)SC2)cc1 | > 26 µM (inactive) |
| COC(/C(=N/O)c1ccc(Cl)cc1)c1ccccc1 (stereo not drawn) | > 26 µM (inactive) |

| Structure (SMILES) | AC50 |
| --- | --- |
| c1ccc(-c2nc3nonc3nc2-c2ccccc2)cc1 | > 26 µM (inactive) |
| O=C(N/N=C(\Cc1ncc[nH]1)c1ccccc1)c1ccncc1 | > 26 µM (inactive) |
| Cc1cc(C)cc(OCCCn2ccnc2)c1 | > 26 µM (inactive) |
| O=C(N/N=C/c1cc([N+](=O)[O-])ccc1O)c1cccc2ccccc12 | > 26 µM (inactive) |
| Cc1ccc(-c2cnc(NC(=O)CCC(=O)N(C)Cc3ccccc3)n2C)cc1 | > 26 µM (inactive) |
| Fc1cc(F)c2nc(Nc3nc4c(F)cccc4s3)sc2c1 | > 26 µM (inactive) |
| CC(=O)N1CCCc2cc(S(=O)(=O)N3CCCC(C(=O)N4CCN(c5cccc(Cl)c5)CC4)C3)ccc21 (stereo not drawn) | > 26 µM (inactive) |
| COc1ccccc1C(NC(C)=O)c1cc(Cl)c2cccnc2c1O (stereo not drawn) | > 26 µM (inactive) |
| O=C(N/N=C/c1sc2ccccc2c1O)c1ccccc1 | > 26 µM (inactive) |
| CCC(=O)NC(c1cccs1)c1cc(Cl)c2cccnc2c1O (stereo not drawn) | > 26 µM (inactive) |
| CN(C)c1ccc(-c2cc(O)c3ncccc3c2)cc1 | > 26 µM (inactive) |
| Cc1ccc(C)c(NC(=S)NC(NC(=O)Cc2cccc3ccccc23)C(Cl)(Cl)Cl)c1 (stereo not drawn) | > 26 µM (inactive) |
| C#CCn1c(=NC(=O)c2ccc(S(=O)(=O)N3CCc4ccccc4C3)cc2)sc2cc(S(N)(=O)=O)ccc21 | > 26 µM (inactive) |
| Cc1ccc2c(c1)nnn2C1CCN(S(=O)(=O)c2ccc(C(=O)N3C(C)CCCC3C)cc2)CC1 (stereo not drawn) | > 26 µM (inactive) |
| CCCOC(=O)/C(C(N)=NCc1ccccc1)=C(\O)OCCC | > 26 µM (inactive) |
| COc1cnc(-c2ccccn2)nc1Sc1ccc(C)cc1 | > 26 µM (inactive) |
| CCCOc1ccc(Br)cc1CSC(=N)N | > 12 µM (inactive) |
| COc1cc(C(=O)N/N=C(\c2ccccc2)c2ccccn2)cc(OC)c1OC | > 26 µM (inactive) |
| O=C(N/N=C/c1sc(N2CCOCC2)nc1-c1ccccc1)c1cccc(S(=O)(=O)N2CCCC2)c1 | > 26 µM (inactive) |
| CN(C)S(=O)(=O)c1cccc(NC(=S)N/N=C/c2cc(Br)ccc2O)c1 | > 26 µM (inactive) |
| CCC(=O)NC(c1cccs1)c1ccc2cccnc2c1O (stereo not drawn) | > 26 µM (inactive) |
| CCOc1cc(N2CCOCC2)c(OCC)cc1NC(=O)COc1cccc2cccnc12 | > 26 µM (inactive) |
| Oc1ccc(CCNc2ncnc3ccc(Cl)cc23)cc1 | > 26 µM (inactive) |

| Structure (SMILES) | AC50 |
| --- | --- |
| O=C(NC(c1ccc(Cl)cc1)c1cc(Cl)c2cccnc2c1O)c1cccnc1 (stereo not drawn) | > 26 µM (inactive) |
| CCN(CC)c1ccc(N=C2C(=O)Nc3ccccc32)cc1 | > 26 µM (inactive) |
| CN(C)c1cc[n+](CC(=O)c2ccc(-c3ccccc3)cc2)cc1 | > 26 µM (inactive) |
| C#Cc1ccc([C@@H]2C=C(C(=O)N3CCN(Cc4ccccc4)CC3)O[C@H](OCCCCO)C2)cc1 | > 26 µM (inactive) |
| CC(C)Oc1ccc(C(CCN)C2CCCCC2)cc1 (stereo not drawn) | > 26 µM (inactive) |
| N=c1c2c(n(Cc3ccc(Br)cc3)c3c1CCC3)CCCC2 | > 26 µM (inactive) |
| COc1ccc(NC(=O)c2c(Nc3ccccc3)sc(C(=O)c3ccc(F)cc3)c2N)cc1 | > 26 µM (inactive) |
| O=C(CCC(=O)Nc1ccc(Br)cc1)N/N=C/c1ccccc1O | > 26 µM (inactive) |
| COc1ccc(Cc2nnc(N/N=C/c3ccccc3O)[nH]c2=O)cc1OC | > 26 µM (inactive) |
| N/C(=N\OC(=O)c1cccc(Cn2cc(C(F)(F)F)ccc2=O)c1)c1ccc(Cl)cc1 | > 26 µM (inactive) |
| CCOc1ccc(-c2cc(C(=O)NCCCn3ccnc3)c3cc(Br)ccc3n2)cc1 | > 12 µM (inactive) |
| O=C(CCC(=O)Nc1ccc(Cl)cc1Cl)N/N=C/c1ccc([N+](=O)[O-])o1 | > 26 µM (inactive) |
| CC(C)(C)c1ccc(OCc2ccc(C(=O)N/N=C/c3ccc(O)c(O)c3)cc2)cc1 | > 26 µM (inactive) |
| O=C(Nc1ccc(N2CCN(Cc3ccccc3Cl)CC2)cc1)c1cccnc1 | > 26 µM (inactive) |
| Cc1ccc(N2C(=O)CSC2c2cccnc2)c(Cl)c1 (stereo not drawn) | > 26 µM (inactive) |
| CCN1C/C(=C/c2ccc(OC)c(O)c2)C(=O)/C(=C/c2ccc(OC)c(O)c2)C1 | > 26 µM (inactive) |
| COc1ccc(N2CC(C(=O)N3CCN(c4ccccc4F)CC3)CC2=O)cc1 (stereo not drawn) | > 26 µM (inactive) |
| CC(=O)Oc1c(I)cc(I)cc1C(=O)Nc1ccc(Cl)cc1 | > 26 µM (inactive) |
| COc1ccccc1/C=N/OCc1cc(C(C)=O)ccc1OC | > 26 µM (inactive) |
| C=CC[n+]1c(/C=C2\C=Cc3cc(C)ccc3N2CC)ccc2ccccc21 | > 26 µM (inactive) |
| O=[N+]([O-])c1ccc(O)c(/C=N/NC(=S)Nc2ccc(Cl)cc2Cl)c1 | > 26 µM (inactive) |
| Cc1cc(N2CCN(S(=O)(=O)c3ccc(Cl)cc3)CC2)c2ccccc2n1 | > 12 µM (inactive) |
